{"source": "patent US20230398134A1", "about": "“SOLID DISPERSIONS OF CANNABIDIOL” (INDENA S.P.A., priority 2020, published 2023)", "key": {"[1]": {"assay": "Solubility in fasted-state simulated intestinal fluid (FaSSIF, pH 6.5)", "format": "physicochemical", "settings": "FaSSIF pH 6.5, excess solid, 2 hours stirring at room temperature, filtered 0.45 μm", "protocol": "(§1) The solubility of the solid powder dispersion of CBD 2, prepared as described in Example 1, was evaluated in simulated biological fluids. […] For the purposes of the present description, the term “mechanical mixture” means a combination of one or more solids amalgamated by mixing techniques not involving the use of any solvent.\n(§2) The solubility studies in different biologically relevant media of the solid dispersion prepared according to Example 1 were conducted to evaluate its behaviour in the intestine under fed and fasted conditions. The solubility studies were conducted in FaSSIF (pH 6.5) and FeSSIF (pH 5).\n(§3) 10-20 mL of FaSSIF and FeSSIF were placed in 40 mL glass vials. An amount of solid dispersion prepared according to Example 1, and an amount of mechanical mixture prepared according to Example 2, in excess of the expected saturated solubility, was added to the vials; the resulting mixtures were maintained under stirring for 2 hours at room temperature. The mixtures were filtered through 0.45 μm PTFE membrane filters. The filtered solutions were analysed with HPLC instrumentation.\n10-20 mL of FaSSIF was placed in 40 mL glass vials. […] The mixtures were filtered through 0.45 μm PTFE membrane filters. The filtered solutions were analysed with HPLC instrumentation."}, "[2]": {"assay": "Solubility in fed-state simulated intestinal fluid (FeSSIF, pH 5)", "format": "physicochemical", "settings": "FeSSIF pH 5, excess solid, 2 hours stirring at room temperature, filtered 0.45 μm, HPLC (Table 2)", "protocol": "as §1, §2, §3"}}}
{"smiles": "C=C(C)[C@@H]1CCC(C)=C[C@H]1c1c(O)cc(CCCCC)cc1O", "note": "[Cannabidiol 2, 2-[(1R,6R)-3-methyl-6-(prop-1-en-2-yl)-cyclohex-2-enyl]-5-pentylbenzen-1,3-diol]", "values": [{"measurement": "Cannabidiol 2 (mg/mL) concentration", "setting": "[1]; HPLC (Table 2)", "result": 0.067, "unit": "mg/mL"}, {"measurement": "Cannabidiol 2 (mg/mL) concentration", "setting": "[1]; HPLC (Table 3)", "result": 0.067, "unit": "mg/mL"}, {"measurement": "Cannabidiol 2 (mg/mL) concentration", "setting": "[2]", "result": 0.278, "unit": "mg/mL"}]}
